In patent publication US11795171B2, “Pyrrolotriazinones and imidazotriazinones as ubiquitin-specific protease 7 inhibitors” (Valo Health, Inc., priority 2014, dated 2023):

Target: USP7 (Homo sapiens (Human), UniProt Q93009)
Assay: USP7 Assay B (Ubitquin-Rhodamine110 Assay)
Format: biochemical
Conditions: Ub-Rh110 substrate 25 nM
Protocol: Stock compound solutions were stored at −20° C. as 10 mM in DMSO. […] Prestamped assay plates were allowed to come to room temperature on the day of the assay. For the screen, 100 nL of 2 mM was pre-dispensed for a final screening concentration of 10 μM (DMSO(fc)=0.5%). […] Unless otherwise indicated, all follow-up assays were run on triplecate plates. […] Pre-stamped with compounds were either not preincubated or preincubated with USP7 between 30 to 120 minutes prior to the addition of 10 μL of 2×Ub-Rh110 to compound plates. Plates were incubated stacked for either 23 or 45 minutes at room temperature before fluorescence was read on the Envision (Excitation at 485 nm and Emission at 535 nm; Perkin Elmer) or on the PheraSTAR (Excitation at 485 nm and Emission at 535 nm; BMG Labtech).
Data from USP7 Assays A and B were reported as percent inhibition (inh) compared with control wells based on the following equation: % inh=1−((FLU−AveLow)/(AveHigh−AveLow)) where FLU=measured Fluorescence (See Tables 2 and 3). AveLow=average Fluorescence of no enzyme control (n=16). AveHigh=average Fluorescence of DMSO control (n=16). IC50 values were determined by curve fitting of the standard 4 parameter logistic fitting algorithm included in the Activity Base software package: IDBS XE Designer Model205. Data is fitted using the Levenburg Marquardt algorithm.

USP7, sequence (Q93009 208-1102): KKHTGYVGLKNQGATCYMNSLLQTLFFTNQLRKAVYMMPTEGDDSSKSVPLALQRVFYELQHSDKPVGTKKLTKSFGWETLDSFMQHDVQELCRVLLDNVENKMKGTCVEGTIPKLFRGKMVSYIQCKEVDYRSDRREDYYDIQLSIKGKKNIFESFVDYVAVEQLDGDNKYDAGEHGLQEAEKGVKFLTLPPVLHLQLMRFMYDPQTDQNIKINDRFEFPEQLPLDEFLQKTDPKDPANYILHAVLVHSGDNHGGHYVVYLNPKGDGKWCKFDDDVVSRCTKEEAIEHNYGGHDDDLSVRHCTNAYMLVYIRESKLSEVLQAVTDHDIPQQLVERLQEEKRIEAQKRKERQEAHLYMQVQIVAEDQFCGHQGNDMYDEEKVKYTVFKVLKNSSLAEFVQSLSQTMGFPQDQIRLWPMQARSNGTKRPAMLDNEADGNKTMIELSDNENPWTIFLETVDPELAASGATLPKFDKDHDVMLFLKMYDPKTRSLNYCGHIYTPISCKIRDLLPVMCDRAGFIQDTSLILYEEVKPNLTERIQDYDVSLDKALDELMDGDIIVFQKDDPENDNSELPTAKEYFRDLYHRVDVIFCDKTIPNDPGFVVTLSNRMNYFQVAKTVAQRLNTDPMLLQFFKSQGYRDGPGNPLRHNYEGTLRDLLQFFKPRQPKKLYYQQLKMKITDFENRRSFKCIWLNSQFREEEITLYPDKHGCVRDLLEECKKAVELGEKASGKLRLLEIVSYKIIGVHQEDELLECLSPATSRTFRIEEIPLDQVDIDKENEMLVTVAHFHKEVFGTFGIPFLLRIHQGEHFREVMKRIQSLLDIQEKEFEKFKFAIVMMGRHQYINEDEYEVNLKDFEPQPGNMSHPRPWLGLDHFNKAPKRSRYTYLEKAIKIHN

| Molecule | IC50 [µM] |
| --- | --- |
| 3-((1-(3-(1H-pyrazol-1-yl)butanoyl)-4-hydroxypiperidin-4-yl)methyl)pyrrolo[2,1-f][1,2,4]triazin-4(3H)-one [Compound I-34] | > 10 |
| 3-((4-hydroxy-1-(3-phenylbutanoyl)piperidin-4-yl)methyl)-6-methylpyrrolo[2,1-f][1,2,4]triazin-4(3H)-one [Compound I-83] | 1 to 10 |
| CC(CC(=O)N1CCC(O)(Cn2cnn3cccc3c2=O)CC1)c1ccccc1 (stereo not drawn) [Compound I-1, 3-((4-hydroxy-1-(3-phenylbutanoyl)piperidin-4-yl)methyl)pyrrolo[2,1-f][1,2,4]triazin-4(3H)-one] | 0.2 to 1 |
| O=C(c1ccccc1-c1ccccc1)N1CCC(O)(Cn2cnn3cccc3c2=O)CC1 [Compound I-2, 3-((1-([1,1′-biphenyl]-2-carbonyl)-4-hydroxypiperidin-4-yl)methyl)pyrrolo[2,1-f][1,2,4]triazin-4(3H)-one] | > 10 |
| O=C(c1ccccc1-c1ccsc1)N1CCC(O)(Cn2cnn3cccc3c2=O)CC1 [Compound I-3, 3-((4-hydroxy-1-(2-(thiophen-3-yl)benzoyl)piperidin-4-yl)methyl)pyrrolo[2,1-f][1,2,4]triazin-4(3H)-one] | > 10 |
| O=C(c1ccccc1-c1cccc(F)c1)N1CCC(O)(Cn2cnn3cccc3c2=O)CC1 [Compound I-4, 3-((1-(3′-fluoro-[1,1′-biphenyl]-2-carbonyl)-4-hydroxypiperidin-4-yl)methyl)pyrrolo[2,1-f][1,2,4]triazin-4(3H)-one] | > 10 |
| O=C(c1cccc(-c2ccc3c(c2)OCO3)c1)N1CCC(O)(Cn2cnn3cccc3c2=O)CC1 [Compound I-5, 3-((1-(3-(benzo[d][1,3]dioxol-5-yl)benzoyl)-4-hydroxypiperidin-4-yl)methyl)pyrrolo[2,1-f][1,2,4]triazin-4(3H)-one] | 1 to 10 |
| Cc1ccccc1-c1cccc(C(=O)N2CCC(O)(Cn3cnn4cccc4c3=O)CC2)c1 [Compound I-6, 3-((4-hydroxy-1-(2′-methyl-[1,1′-biphenyl]-3-carbonyl)piperidin-4-yl)methyl)pyrrolo[2,1-f][1,2,4]triazin-4(3H)-one] | 1 to 10 |
| Cc1ccc(-c2cccc(C(=O)N3CCC(O)(Cn4cnn5cccc5c4=O)CC3)c2)cc1 [Compound I-7, 3-((4-hydroxy-1-(4′-methyl-[1,1′-biphenyl]-3-carbonyl)piperidin-4-yl)methyl)pyrrolo[2,1-f][1,2,4]triazin-4(3H)-one] | 1 to 10 |
| COc1ccc(-c2cccc(C(=O)N3CCC(O)(Cn4cnn5cccc5c4=O)CC3)c2)cc1 [Compound I-8, 3-((4-hydroxy-1-(4′-methoxy-[1,1′-biphenyl]-3-carbonyl)piperidin-4-yl)methyl)pyrrolo[2,1-f][1,2,4]triazin-4(3H)-one] | 1 to 10 |
| Cc1cc(-c2cccc(C(=O)N3CCC(O)(Cn4cnn5cccc5c4=O)CC3)c2)ccc1F [Compound I-9, 3-((1-(4′-fluoro-3′-methyl-[1,1′-biphenyl]-3-carbonyl)-4-hydroxypiperidin-4-yl)methyl)pyrrolo[2,1-f][1,2,4]triazin-4(3H)-one] | > 10 |
| COc1cccc(-c2cccc(C(=O)N3CCC(O)(Cn4cnn5cccc5c4=O)CC3)c2)c1 [Compound I-10, 3-((4-hydroxy-1-(3′-methoxy-[1,1′-biphenyl]-3-carbonyl)piperidin-4-yl)methyl)pyrrolo[2,1-f][1,2,4]triazin-4(3H)-one] | > 10 |
| O=C(c1cccc(-c2ccccc2)c1)N1CCC(O)(Cn2cnn3cccc3c2=O)CC1 [Compound I-11, 3-((1-([1,1′-biphenyl]-3-carbonyl)-4-hydroxypiperidin-4-yl)methyl)pyrrolo[2,1-f][1,2,4]triazin-4(3H)-one] | 1 to 10 |
| O=C(c1cccc(-c2ccc(Cl)cc2)c1)N1CCC(O)(Cn2cnn3cccc3c2=O)CC1 [Compound I-12, 3-((1-(4′-chloro-[1,1′-biphenyl]-3-carbonyl)-4-hydroxypiperidin-4-yl)methyl)pyrrolo[2,1-f][1,2,4]triazin-4(3H)-one] | 1 to 10 |
| O=C(c1cccc(-c2cccc(Cl)c2)c1)N1CCC(O)(Cn2cnn3cccc3c2=O)CC1 [Compound I-13, 3-((1-(3′-chloro-[1,1′-biphenyl]-3-carbonyl)-4-hydroxypiperidin-4-yl)methyl)pyrrolo[2,1-f][1,2,4]triazin-4(3H)-one] | 1 to 10 |
| CC(C)c1ccc(-c2cccc(C(=O)N3CCC(O)(Cn4cnn5cccc5c4=O)CC3)c2)cc1 [Compound I-14, 3-((4-hydroxy-1-(4′-isopropyl-[1,1′-biphenyl]-3-carbonyl)piperidin-4-yl)methyl)pyrrolo[2,1-f][1,2,4]triazin-4(3H)-one] | > 10 |
| O=C(c1cccc(-c2ccc(C(F)(F)F)cc2)c1)N1CCC(O)(Cn2cnn3cccc3c2=O)CC1 [Compound I-15, 3-((4-hydroxy-1-(4′-(trifluoromethyl)-[1,1′-biphenyl]-3-carbonyl)piperidin-4-yl)methyl)pyrrolo[2,1-f][1,2,4]triazin-4(3H)-one] | > 10 |
| NC(=O)c1ccc(-c2cccc(C(=O)N3CCC(O)(Cn4cnn5cccc5c4=O)CC3)c2)cc1 [Compound I-16, 3′-(4-hydroxy-4-((4-oxopyrrolo[2,1-f][1,2,4]triazin-3(4H)-yl)methyl)piperidine-1-carbonyl)-[1,1′-biphenyl]-4-carboxamide] | 1 to 10 |
| Cc1ccc(-c2cccc(C(=O)N3CCC(O)(Cn4cnn5cccc5c4=O)CC3)c2)cc1C [Compound I-17, 3-((1-(3′,4′-dimethyl-[1,1′-biphenyl]-3-carbonyl)-4-hydroxypiperidin-4-yl)methyl)pyrrolo[2,1-f][1,2,4]triazin-4(3H)-one] | > 10 |
| N#Cc1ccccc1-c1cccc(C(=O)N2CCC(O)(Cn3cnn4cccc4c3=O)CC2)c1 [Compound I-18, 3′-(4-hydroxy-4-((4-oxopyrrolo[2,1-f][1,2,4]triazin-3(4H)-yl)methyl)piperidine-1-carbonyl)-[1,1′-biphenyl]-2-carbonitrile] | > 10 |
| N#Cc1ccc(-c2cccc(C(=O)N3CCC(O)(Cn4cnn5cccc5c4=O)CC3)c2)cc1 [Compound I-19, 3′-(4-hydroxy-4-((4-oxopyrrolo[2,1-f][1,2,4]triazin-3(4H)-yl)methyl)piperidine-1-carbonyl)-[1,1′-biphenyl]-4-carbonitrile] | > 10 |
| Cc1ccc(-c2cccc(C(=O)N3CCC(O)(Cn4cnn5cccc5c4=O)CC3)c2)s1 [Compound I-20, 3-((4-hydroxy-1-(3-(5-methylthiophen-2-yl)benzoyl)piperidin-4-yl)methyl)pyrrolo[2,1-f][1,2,4]triazin-4(3H)-one] | > 10 |
| O=C(c1cccc(-c2ccc3ncccc3c2)c1)N1CCC(O)(Cn2cnn3cccc3c2=O)CC1 [Compound I-21, 3-((4-hydroxy-1-(3-(quinolin-6-yl)benzoyl)piperidin-4-yl)methyl)pyrrolo[2,1-f][1,2,4]triazin-4(3H)-one] | 1 to 10 |
| O=C(c1cccc(-c2ccc3nccn3c2)c1)N1CCC(O)(Cn2cnn3cccc3c2=O)CC1 [Compound I-22, 3-((4-hydroxy-1-(3-(imidazo[1,2-a]pyridin-6-yl)benzoyl)piperidin-4-yl)methyl)pyrrolo[2,1-f][1,2,4]triazin-4(3H)-one] | > 10 |
